Legend:
SK-BR-3 cells = assay: Determination of cell growth inhibition (crystal violet staining method); type: cell-based; settings: Homo sapiens; breast cancer cells SK-BR-3, 72 hours culture with test substance
Method: Cell growth was assayed by a crystal violet staining method. SK-BR-3 cells (HTB-30) purchased from American Type Culture Collection were inoculated at a concentration of 5,000 cells/well to a 96-well plate (#353075, BD Biosciences). After culture at 37° C. for 24 hours in a 5% CO2 incubator, each test substance was added thereto, and the cells were further cultured for 72 hours. A 25% glutaraldehyde solution (#17025-25, Nacalai Tesque, Inc.) was added thereto at a concentration of 20 μL/well per 200 μL of the medium, and the plate was incubated at room temperature for 20 minutes to fix the cells. The plate was washed with water and dried. Then, a solution containing 0.05% crystal violet (#038-17792, Wako Pure Chemical Industries, Ltd.) and 20% methanol was added thereto at a concentration of 100 μL/well, and the plate was incubated at room temperature for 20 minutes to stain the cells. The plate was washed with water and dried. A mixed solution of 0.05 M NaH2PO4 and ethanol (mixed in equal amounts) was added thereto at a concentration of 100 μL/well. Absorbance was measured at 540 nm using a microplate reader (MTP-450, Corona Electric Co., Ltd.) and used as an index for the number of cells per well. Percent inhibition (%) of cell growth by each compound of the present invention was determined according to the formula shown below with the absorbance of no drug addition group as a control. […] Percent inhibition (%)=(C−T)/C×100, wherein T: Absorbance of well with test substance addition C: Absorbance of well without test substance addition.

[1] = target: human HSP90 alpha protein (N-terminal, amino acids 2 to 236) (Homo sapiens (Human), UniProt P07900); assay: Determination of HSP90-binding activity (AlphaScreen competitive assay with biotinylated geldanamycin); settings: inhibition of binding of biotinylated geldanamycin to purified HSP90 N-terminal protein, read-out: HSP-binding activity IC50
Method: First, a purified HSP90 solution was prepared as follows: a human HSP90 alpha gene (NCBI Reference Sequence accession no. NM-005348) region corresponding to amino acids 2 to 236 of human HSP90 alpha protein (NCBI Reference Sequence accession no. NP-005339; full length: 732 amino acids) was inserted to pET-19b (Novagen; Merck KGaA) to construct a plasmid pET-HS[…] for expression of the HSP90 N-terminal protein having a His-tag at the N-terminus. E. coli (BL21(DE3), Stratagene Corp.) was transformed with pET-HS[…] and then cultured at 37° C. for 4 hours in the presence of 0.5 mM isopropyl-beta-D-thiogalactopyranoside (Sigma-Aldrich Corp.). The collected E. coli was suspended in a lysis buffer (50 mM Tris-HCl (pH 7.5), 200 mM NaCl) and sonicated. The sonicated cell solution was centrifuged (40,000×g, 20 minutes), and the supernatant was used as a crude extract. This crude extract was fractionated using Ni Sepharose High Performance (GE Healthcare Japan Corp.) chromatography and HiLoad 26/60 Superdex 75 pg (GE Healthcare Japan Corp.). Then, a fraction of HSP90 protein concentrates was prepared in a solution containing 50 mM Tris-HCl (pH 7.5) and 20% glycerol as a purified HSP90 solution. The purified HSP90 solution was divided and stored at -80° C. until use. HSP90-binding activity was determined by an AlphaScreen competitive assay system. […] After reaction at room temperature for 2 hours, biotinylated geldanamycin was added thereto at a concentration of 40 nM/well and further reacted for 1 hour. Detection mix (20 mM HEPES-KOH (pH 7.5), 0.5% BSA, 0.04 mg/mL Nickel Chelate Acceptor beads, 0.04 mg/mL Streptavidin-coated Donor beads) (#6760619C, PerkinElmer, Inc.) was added to each well in an amount equal to the amount of the reaction solution and reacted at room temperature for 1 hour in the dark. Then, fluorescence intensity was measured using Multilabel Plate Reader EnVision (PerkinElmer, Inc.). Percent inhibition (%) of the binding of biotinylated geldanamycin by each compound of the present invention was determined according to the formula shown below with the fluorescence signal of no test substance addition group as a control. […] Percent inhibition (%)=(C-T)/C×100, wherein T: Signal of well with test substance addition C: Signal of well without test substance addition.

| SMILES | IC50 (SK-BR-3 cells) [nM] | IC50 [1] [nM] |
| --- | --- | --- |
| NC(=O)c1ccc(-c2nccc3c(-c4cncc(CO)c4)cccc23)cc1NC1CCC(O)CC1 (stereo not shown) [Example 17, 2-(4-Hydroxycyclohexylamino)-4-(5-(5-(hydroxymethyl)pyridin-3-yl)isoquinolin-1-yl)benzamide] | 280 | 100 |
| CC(C)(C)OC(=O)NCCc1cncc(-c2cccc3c(-c4ccc(C(N)=O)c(NC5CCC(O)CC5)c4)nccc23)c1 (stereo not shown) [Example 19, Tert-butyl 2-(5-(1-(4-carbamoyl-3-(4-hydroxycyclohexylamino)phenyl)isoquinolin-5-yl)pyridin-3-yl)ethylcarbamate] | 880 | 2690 |
| COc1cncc(-c2cccc3c(-c4ccc(C(N)=O)c(NC5CCC(O)CC5)c4)nccc23)c1 (stereo not shown) [Example 24, 2-(4-Hydroxycyclohexylamino)-4-(5-(5-methoxypyridin-3-yl)isoquinolin-1-yl)benzamide] | 690 | 650 |
| NC(=O)c1ccc(-c2nccc3c(-n4cnc(-c5ccncc5)c4)cccc23)cc1NC1CCC(O)CC1 (stereo not shown) [Example 25, 2-(4-Hydroxycyclohexylamino)-4-(5-(4-(pyridin-4-yl)-1H-imidazol-1-yl)isoquinolin-1-yl)benzamide] | 110 | 130 |
| CC(=O)Nc1cncc(-c2cccc3c(-c4ccc(C(N)=O)c(NC5CCC(O)CC5)c4)nccc23)c1 (stereo not shown) [Example 27, 4-(5-(5-Acetamidepyridin-3-yl)isoquinolin-1-yl)-2-(4-hydroxycyclohexylamino)benzamide] | 540 | 150 |
| NC(=O)c1ccc(-c2nccc3c(-c4cncc(NC(=O)CO)c4)cccc23)cc1NC1CCC(O)CC1 (stereo not shown) [Example 28, 4-(5-(5-(2-Hydroxyacetamide)pyridin-3-yl)isoquinolin-1-yl)-2-(4-hydroxycyclohexylamino)benzamide] | 500 | 230 |
| NC(=O)c1ccc(-c2nc(CN3CCOCC3)cc3c(-c4cnc5ccccc5c4)cccc23)cc1NC1CCC(O)CC1 (stereo not shown) [Example 31, 2-(4-Hydroxycyclohexylamino)-4-(3-(morpholinomethyl)-5-(quinolin-3-yl)isoquinolin-1-yl)benzamide] | 580 | 800 |
| NC(=O)c1ccc(-c2nccc3c(-n4cnc(-c5cccnc5)c4)cccc23)cc1NC1CCC(O)CC1 (stereo not shown) [Example 32, 2-(4-Hydroxycyclohexylamino)-4-(5-(4-(pyridin-3-yl)-1H-imidazol-1-yl)isoquinolin-1-yl)benzamide] | 20 | 80 |
| CNc1cncc(-c2cccc3c(-c4ccc(C(N)=O)c(NC5CCC(O)CC5)c4)nccc23)c1 (stereo not shown) [Example 34, 2-(4-Hydroxycyclohexylamino)-4-(5-(5-(methylamino)pyridin-3-yl)isoquinolin-1-yl)benzamide] | 50 | 140 |
| CCCNc1cncc(-c2cccc3c(-c4ccc(C(N)=O)c(NC5CCC(O)CC5)c4)nccc23)c1 (stereo not shown) [Example 35, 2-(4-Hydroxycyclohexylamino)-4-(5-(5-(propylamino)pyridin-3-yl)isoquinolin-1-yl)benzamide] | 460 | 1490 |
| CN(CCO)CNC(=O)c1ccc(-c2nccc3c(-c4cnc5ccccc5c4)cccc23)cc1NC1CCC(O)CC1 (stereo not shown) [Example 37, 2-(4-Hydroxycyclohexylamino)-N-(((2-hydroxyethyl)(methyl)amino)methyl)-4-(5-(quinolin-3-yl)isoquinolin-1-yl)benzamide] | 60 | 370 |
| CN(C)CNC(=O)c1ccc(-c2nccc3c(-c4cnc5ccccc5c4)cccc23)cc1NC1CCC(O)CC1 (stereo not shown) [Example 38, N-((dimethylamino)methyl)-2-(4-hydroxycyclohexylamino)-4-(5-(quinolin-3-yl)isoquinolin-1-yl)benzamide] | 40 | 980 |
| NC(=O)c1ccc(-c2nccc3c(-c4cnc5cc[nH]c5c4)cccc23)cc1NC1CCC(O)CC1 (stereo not shown) [Example 39, 4-(5-(1H-Pyrrolo[3,2-b]pyridin-6-yl)isoquinolin-1-yl)-2-(4-hydroxycyclohexylamino)benzamide] | 10 | 130 |
| Cc1nc2ncc(-c3cccc4c(-c5ccc(C(N)=O)c(NC6CCC(O)CC6)c5)nccc34)cc2[nH]1 (stereo not shown) [Example 40, 2-(4-Hydroxycyclohexylamino)-4-(5-(2-methyl-1H-imidazo[4,5-b]pyridin-6-yl)isoquinolin-1-yl)benzamide] | 540 | 150 |
| CCc1nc2ncc(-c3cccc4c(-c5ccc(C(N)=O)c(NC6CCC(O)CC6)c5)nccc34)cc2[nH]1 (stereo not shown) [Example 41, 4-(5-(2-Ethyl-1H-imidazo[4,5-b]pyridin-6-yl)isoquinolin-1-yl)-2-(4-hydroxycyclohexylamino)benzamide] | 1270 | 390 |

Results, then the compound that gave them:

| IC50 (SK-BR-3 cells) [nM] | IC50 [1] [nM] | SMILES |
| --- | --- | --- |
| 1100 | 690 | NC(=O)c1ccc(-c2nccc3c(-c4cncnc4)cccc23)cc1NC1CCC(O)CC1 (stereo not shown) [Example 43, 2-(4-Hydroxycyclohexylamino)-4-(5-(pyrimidin-5-yl)isoquinolin-1-yl)benzamide] |
| 30 | 220 | NC(=O)c1ccc(-c2nccc3c(-c4cnc5cc(C=O)ccc5c4)cccc23)cc1NC1CCC(O)CC1 (stereo not shown) [Example 45, 4-(5-(7-Formylquinolin-3-yl)isoquinolin-1-yl)-2-(4-hydroxycyclohexylamino)benzamide] |
| 20 | 70 | Cn1cc(-c2cn(-c3cccc4c(-c5ccc(C(N)=O)c(NC6CCC(O)CC6)c5)nccc34)cn2)cn1 (stereo not shown) [Example 48, 2-(4-Hydroxycyclohexylamino)-4-(5-(4-(1-methyl-1H-pyrazol-4-yl)-1H-imidazol-1-yl)isoquinolin-1-yl)benzamide] |
| 400 | 1560 | NC(=O)c1ccc(-c2nccc3c(-c4cnc5ccc(CN6CCOCC6)cc5c4)cccc23)cc1NC1CCC(O)CC1 (stereo not shown) [Example 49, 2-(4-Hydroxycyclohexylamino)-4-(5-(6-(morpholinomethyl)quinolin-3-yl)isoquinolin-1-yl)benzamide] |
| 40 | 120 | CC(C)n1cc(-c2cn(-c3cccc4c(-c5ccc(C(N)=O)c(NC6CCC(O)CC6)c5)nccc34)cn2)cn1 (stereo not shown) [Example 53, 2-(4-Hydroxycyclohexylamino)-4-(5-(4-(1-isopropyl-1H-pyrazol-4-yl)-1H-imidazol-1-yl)isoquinolin-1-yl)benzamide] |
| 470 | 370 | CNC(=O)c1ccc(-c2cccc3c(-c4ccc(C(N)=O)c(NC5CCC(O)CC5)c4)nccc23)cn1 (stereo not shown) [Example 56, 5-(1-(4-Carbamoyl-3-(4-hydroxycyclohexylamino)phenyl)isoquinolin-5-yl)-N-methylpicolinamide] |
| 1440 | 250 | CNc1cc(-c2nccc3c(-n4cnc(-c5cnn(C)c5)c4)cccc23)ccc1C(N)=O [Example 58, 4-(5-(4-(1-Methyl-1H-pyrazol-4-yl)-1H-imidazol-1-yl)isoquinolin-1-yl)-2-(methylamino)benzamide] |
| 90 | 100 | Cn1cc(-c2cn(-c3cccc4c(-c5ccc(C(N)=O)c(NCC6CCCO6)c5)nccc34)cn2)cn1 (stereo not shown) [Example 59, 4-(5-(4-(1-Methyl-1H-pyrazol-4-yl)-1H-imidazol-1-yl)isoquinolin-1-yl)-2-((tetrahydrofuran-2-yl)methylamino)benzamide] |

Reference: US8912181B2 (Taiho Pharmaceutical Co., Ltd., priority 2011, dated 2014)
